# Assay results published in US12433844B2, “Preparation method and application of tumor microparticles encapsulating metabolic inhibitors” (Union Hospital, Tongji Medical College, Huazhong University …, priority 2022, dated 2025).
# Test system: lung metastasis
# Assay: Lung metastatic nodules count (H&E staining)
# Type: in vivo, mice
# Conditions: compared to the PBS intervention group
# Procedure: In order to explore the anti-tumor effect of TMP-F combined with chemotherapy, two doses of cisplatin chemotherapy (Cis) are added during the intervention process. […] In addition, the lungs of mice are extracted, hematoxylin-eosin (H&E) staining is performed on the lungs of mice, and the number of lung metastatic nodules under the light microscope are observed and counted.
compound,measurement,value
"N.N.[Cl][Pt][Cl] [chemotherapy alone, cisplatin]",lung metastasis (number of lung metastatic nodules),inhibits the lung metastasis
